{"source": "patent US20110275103A1", "about": "“EMISSION RATIOMETRIC REPORTERS OF MEMBRANE PDK1 ACTIVATION” (THE JOHNS HOPKINS UNIVERSITY, priority 2010, published 2011)", "format_in_all_cases": "cell-based", "key": {"[1]": {"test_system": "PDK1", "assay": "FRET emission ratio imaging of PDK1 activation reporters (PARE, Lyn-PARE, PARE-Kras) in NIH 3T3 cells", "conditions": "for emission ratio change of the non-raft-targeted reporter (PARE-Kras) / emission ratio change of the untargeted reporter (PARE) / response of the Lyn-PARE R472/474A mutant reporter / increase in the yellow-to-cyan emission ratio of the raft-targeted PDK1 activity reporter (Lyn-PARE): serum-starved NIH 3T3 cells", "excerpt": "(§1) PARE was generated by sandwiching full-length PDK1 between a FRET pair, ECFP and Citrine. Lyn-PARE and PARE-Kras were generated by the addition of the N-terminal portion of the Lyn kinase gene (GCIKSKRKDKD; SEQ ID NO:6) at the 5′ end and a C(A)2X tag (C is cysteine, A is an aliphatic amino acid, and X is any amino acid) at the 3′ end (KKKKKSKTKCVIM; SEQ ID NO:7) of PARE, respectively. Lyn-PARE R472/474A was generated by site-directed mutagenesis. PTEN A4 (fused with a C-terminal fluorescent protein) was targeted to raft and non-raft regions of plasma membrane with the same set of targeting motifs. All of the constructs were generated in a modified version of the mammalian expression vector pcDNA 3.\n(§2) Cells were plated on sterilized glass coverslips in 35 mm dishes and were grown to 40% confluency in medium at 37° C. with 5% CO2, then transfected with Lipofectamine 2000. In the case of NIH 3T3 and HeLa cells, the cells were serum-starved for 24 h. For imaging, cells were washed with Hanks' balanced salt solution (HBSS) and imaged in the dark at room temperature. Images were acquired on a Zeiss Axiovert 200M microscope with a cooled charge-coupled device camera, as previously described (8). Dual-emission ratio imaging was performed with a 420DF20 excitation filter, a 450DRLP dichroic mirror, and two emission filters. For CFP and YFP, 475DF40 and 535DF25, respectively, were used. Exposure times were 50-500 ms. Images were taken every 30 s. Imaging data were analyzed with Metafluor 6.2 software (Universal Imaging, Downingtown, Pa.). Fluorescence images were background-corrected by deducting the background (regions with no cells) from the emission intensities of CFP or YFP. Traces were normalized by taking the emission ratio before addition of drugs as 1."}, "[2]": {"test_system": "PDK1", "assay": "FRET emission ratio imaging of Lyn-PARE in 3T3 L1 preadipocytes", "conditions": "pre-incubation with 50 μM C2-ceramide", "excerpt": "as §1\nCells were plated on sterilized glass coverslips in 35 mm dishes and were grown to 40% confluency in medium at 37° C. with 5% CO2, then transfected with Lipofectamine 2000. In the case of NIH 3T3 and HeLa cells, the cells were serum-starved for 24 h. For imaging, cells were washed with Hanks' balanced salt solution (HBSS) and imaged in the dark at room temperature. […] Imaging data were analyzed with Metafluor 6.2 software (Universal Imaging, Downingtown, Pa.). Fluorescence images were background-corrected by deducting the background (regions with no cells) from the emission intensities of CFP or YFP. […]"}, "[3]": {"test_system": "Akt", "assay": "Membrane translocation of YFP-tagged Akt PH domain in NIH 3T3 cells", "protocol": "as §2"}, "[4]": {"test_system": "Akt", "assay": "Membrane translocation of Akt PH domain in 3T3 L1 preadipocytes", "conditions": "pre-incubation with 50 μM C2-ceramide", "protocol": "as §2"}, "[5]": {"test_system": "Akt", "assay": "FRET-based Akt activity reporter (AktAR) imaging in NIH 3T3 cells", "conditions": "pre-incubation with 50 μM C2-ceramide for 60 min", "protocol": "as §2"}, "[6]": {"test_system": "Akt", "assay": "FRET-based Akt activity reporter (AktAR) imaging in 3T3 L1 preadipocytes", "conditions": "pre-incubation with 50 μM C2-ceramide", "protocol": "as §2"}, "[7]": {"test_system": "PTEN", "assay": "Sucrose density gradient fractionation of crude plasma membranes and anti-PTEN Western blot, 3T3-L1 adipocytes", "protocol": "Cells were washed with ice-cold PBS and then lysed in RIPA lysis buffer containing protease inhibitor cocktail (Roche), 1 mM PMSF, 1 mM NaVO4, 1 mM NaF and 25 nM calyculin A. Total cell lysates were incubated on ice for 30 min, then centrifuged at 4° C. for 20 min. Total protein was separated with 7.5% SDS-PAGE and transferred to nitrocellulose membranes. The membranes were blocked with TBS containing 0.05% Tween-20 and 1% bovine serum albumin, then incubated with primary antibodies overnight at 4° C. After incubation with the appropriate horseradish peroxidase-conjugated secondary antibodies, the bands were visualized by enhanced chemiluminescence. The intensity of the bands was quantified with ImageJ software.\nCells were rinsed twice with ice-cold PBS and harvested into 10 mM Tris (pH 7.4) with 150 mM NaCl, 5 mM EDTA, 2 mM PMSF, 2 mM NaVO4, 2 mM NaF, and 50 nM calyculin A, with protease inhibitor cocktail. The cells then were subjected to mechanical disruption with 15 strokes of a homogenizer. Homogenates were centrifuged at 2,300×g for 5 min at 4° C., and the supernatant was centrifuged at 18,000×g for 50 min at 4° C. (32). The resulting membrane pellets were resuspended in 10 mM Tris (pH 7.4) with 150 mM NaCl, 5 mM EDTA, 2 mM PMSF, 2 mM NaVO4, 2 mM NaF and 50 nM calyculinA A, with protease inhibitor cocktail and 1% Triton X-100, for sucrose density gradient fractionation. […]"}, "[8]": {"test_system": "3T3 L1 adipocytes", "assay": "Glucose uptake assay ([14C]2-deoxyglucose) in 3T3 L1 adipocytes", "conditions": "pre-incubation with 50 μM C2-ceramide for 60 min, 100 nM insulin, n=3", "protocol": "3T3-L1 preadipocytes were grown to confluency in 10% calf serum/DMEM and stimulated with induction media (DMEM containing 10% fetal bovine serum, 1 μg/ml insulin, 1 μM dexamethasone, and 0.5 mM 3-isobutyl-1-methylxanthine) at 2 days post-confluency.\nThe medium was changed to insulin medium (1 μg/ml) 2 days after induction. Two days later, the medium was replaced with 10% fetal bovine serum/DMEM and then changed every 2 days. Full differentiation was achieved by 8 days after induction.\nAdipocytes were incubated in Krebs-Ringer bicarbonate buffer supplemented with 30 mM HEPES, pH 7.4, with 0.5% BSA (KRBH/BSA) and 2.5 mM glucose for 3 h. The cells were washed once with PBS and incubated in BSA/KRH (25 mM HEPES-NaOH, pH 7.4, with 120 mM NaCl, 5 mM KCl, 1.2 mM MgSO4, 1.3 mM CaCl2, and 1.3 mM KH2PO4) without glucose for 15 min. The cells were then incubated with 100 nM insulin for 15 min. The assay was initiated by the addition of ^[14C]2-deoxyglucose (0.4 μCi/sample) and 5 mM glucose and terminated after 15 min by washing the cells three times with ice-cold PBS. Cells were solubilized in 1% Triton-100, and cell-associated radioactivity was determined by scintillation counting."}, "[9]": {"test_system": "PDK1", "assay": "FRET emission ratio imaging of PDK1 activation reporters in HeLa cells", "conditions": "serum-starved HeLa cells; 100 ng/ml EGF", "excerpt": "as §1, §2"}, "[10]": {"conditions": "NIH 3T3 cells, pre-incubation with 50 μM C2-ceramide for 60 min"}}, "note": "Entries after “also recorded” stand apart in the source; their conditions may differ.", "data": [{"compound": "CCCCCCCCCCCCC/C=C/[C@@H](O)[C@H](CO)NC(C)=O", "note": "[C2-ceramide]", "values": [{"measurement": "effect on response of Lyn-PARE", "setting": "[1]; [10]", "value": "abolished"}, {"measurement": "effect on response of Lyn-PARE", "setting": "[2]", "value": "abolished"}, {"measurement": "effect on membrane translocation of Akt PH domain", "setting": "[3]; [10]", "value": "abolished"}, {"measurement": "effect on membrane translocation of Akt PH domain", "setting": "[4]", "value": "abolished"}, {"measurement": "effect on response of AktAR", "setting": "[5]", "value": "abolished"}, {"measurement": "effect on response of AktAR", "setting": "[6]", "value": "abolished"}, {"measurement": "increase in the amount of PTEN found in raft fractions", "setting": "[7]; pre-incubation with 50 μM C2-ceramide, n=3", "value": "8.8±2.1", "unit": "fold"}, {"measurement": "level of PTEN in non-raft regions of adipocyte membranes", "setting": "[7]; pre-incubation with C2-ceramide", "value": "without changing the level of PTEN"}, {"measurement": "effect on insulin-induced glucose uptake", "setting": "[8]", "value": "blocked insulin-induced glucose uptake; also recorded: inhibited insulin-induced glucose uptake"}]}, {"compound": "OO", "note": "[H2O2]", "values": [{"measurement": "effect on Lyn-PARE response to PDGF suppressed by targeted PTEN A4", "setting": "[1]; NIH 3T3 cells, 50 mM H2O2", "value": "restored"}, {"measurement": "effect on Akt PH membrane translocation suppressed by Lyn-PTEN A4", "setting": "[3]; 50 mM H2O2", "value": "restored the membrane translocation"}, {"measurement": "effect on inhibition of Akt-PH translocation by non-raft-targeted PTEN A4 (PTEN A4-Kras)", "setting": "[3]; H2O2 treatment", "value": "reversed"}]}, {"compound": "EGF: epidermal growth factor, purchased from Sigma-Aldrich (NSDSECPLSHDGYCLHDGVCMYIEALDKYACNCVVGYIGERCQYRDLKWWELR; UniProt P01133 971-1023, looked up)", "values": [{"measurement": "emission ratio change of the non-raft-targeted reporter (PARE-Kras)", "setting": "[9]", "value": "but not PARE (n=4) or PARE-Kras"}, {"measurement": "emission ratio change of the raft-targeted reporter (Lyn-PARE)", "setting": "[9]", "value": "induced an emission ratio increase"}, {"measurement": "emission ratio change of the untargeted reporter (PARE)", "setting": "[9]", "value": "but not PARE"}]}, {"compound": "PDGF", "values": [{"measurement": "emission ratio change of the non-raft-targeted reporter (PARE-Kras)", "setting": "[1]; 50 ng/ml PDGF", "value": "no emission ratio change"}, {"measurement": "emission ratio change of the untargeted reporter (PARE)", "setting": "[1]; 50 ng/ml PDGF", "value": "no emission ratio change"}, {"measurement": "response of the Lyn-PARE R472/474A mutant reporter", "setting": "[1]; 50 ng/ml PDGF", "value": "lack of response"}, {"measurement": "increase in the yellow-to-cyan emission ratio of the raft-targeted PDK1 activity reporter (Lyn-PARE)", "setting": "[1]; 50 ng/ml PDGF, n=7", "value": "19±4", "unit": "%"}]}, {"compound": "pervanadate [PV]", "values": [{"measurement": "emission ratio change of the non-raft-targeted reporter (PARE-Kras)", "setting": "[1]; 100 μM PV", "value": "Only the raft-targeted PDK1 activity reporter showed an increase"}, {"measurement": "emission ratio change of the untargeted reporter (PARE)", "setting": "[1]; 100 μM PV", "value": "no emission ratio change"}, {"measurement": "increase in the yellow-to-cyan emission ratio of the raft-targeted PDK1 activity reporter (Lyn-PARE)", "setting": "[1]; 100 μM PV, n=5", "value": "20.7±3.3", "unit": "%"}, {"measurement": "response of the Lyn-PARE R472/474A mutant reporter", "setting": "[1]; PV", "value": "lack of response"}]}]}
